Source: ChEMBL document CHEMBL5113402, “Inhibition of cytochrome P450 monooxygenase-catalyzed oxylipin formation by flavonoids: Evaluation of structure-activity relationship towards CYP4F2-selective inhibitors” (Eur J Med Chem, 2022)

Key:
[1] = target: T1, CYP450 (20-HETE formation) (Homo sapiens, UniProt P04798+P05177+P05181+P08684+P10632+P10635+P11509+P11712+P13584+P20813+P20815+P20853+P24462+P24903+P33260+P33261+P51589+P78329+P98187+Q02928+Q08477+Q16678+Q16696+Q5TCH4+Q6VVX0+Q7Z449+Q8TAV3+Q96SQ9+Q9HB55); experiment: Inhibition of CYP450 in human liver microsomes assessed as inhibition of 20-HETE formation in presence of arachidonic acid and NADPH by multi-enzyme assay based LC-MS/MS analysis; format: ADME, Microsome; settings: probe arachidonic acid
[2] = target: T2, Cytochrome P450 4F2 (Homo sapiens, UniProt P78329); experiment: Inhibition of recombinant human CYP4F2 expressed in baculovirus-infected insect cells in presence of arachidonic acid and NADPH incubated for 15 mins by jump-dilution assay; format: ADME
T2 sequence (P78329 whole entry): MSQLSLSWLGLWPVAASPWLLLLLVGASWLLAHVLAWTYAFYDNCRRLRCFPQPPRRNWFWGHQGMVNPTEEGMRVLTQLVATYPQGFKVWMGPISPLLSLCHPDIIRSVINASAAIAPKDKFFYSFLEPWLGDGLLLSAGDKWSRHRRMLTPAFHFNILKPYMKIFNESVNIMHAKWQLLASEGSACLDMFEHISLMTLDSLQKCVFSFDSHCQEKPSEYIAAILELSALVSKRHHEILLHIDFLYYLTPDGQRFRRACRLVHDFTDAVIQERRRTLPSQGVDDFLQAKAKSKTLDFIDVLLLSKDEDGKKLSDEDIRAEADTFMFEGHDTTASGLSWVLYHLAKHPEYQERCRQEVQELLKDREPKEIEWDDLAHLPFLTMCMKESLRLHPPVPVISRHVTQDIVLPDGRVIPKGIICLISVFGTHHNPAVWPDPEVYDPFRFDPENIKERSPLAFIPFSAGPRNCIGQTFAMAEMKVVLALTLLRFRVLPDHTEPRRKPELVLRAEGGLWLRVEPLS

[3] = target: T3, Cytochrome P450 4A11 (Homo sapiens, UniProt Q02928); experiment: Inhibition of recombinant human CYP4A11 expressed in baculovirus-infected insect cells in presence of arachidonic acid and NADPH incubated for 15 mins by jump-dilution assay relative to control; format: ADME
T3 sequence (Q02928 whole entry): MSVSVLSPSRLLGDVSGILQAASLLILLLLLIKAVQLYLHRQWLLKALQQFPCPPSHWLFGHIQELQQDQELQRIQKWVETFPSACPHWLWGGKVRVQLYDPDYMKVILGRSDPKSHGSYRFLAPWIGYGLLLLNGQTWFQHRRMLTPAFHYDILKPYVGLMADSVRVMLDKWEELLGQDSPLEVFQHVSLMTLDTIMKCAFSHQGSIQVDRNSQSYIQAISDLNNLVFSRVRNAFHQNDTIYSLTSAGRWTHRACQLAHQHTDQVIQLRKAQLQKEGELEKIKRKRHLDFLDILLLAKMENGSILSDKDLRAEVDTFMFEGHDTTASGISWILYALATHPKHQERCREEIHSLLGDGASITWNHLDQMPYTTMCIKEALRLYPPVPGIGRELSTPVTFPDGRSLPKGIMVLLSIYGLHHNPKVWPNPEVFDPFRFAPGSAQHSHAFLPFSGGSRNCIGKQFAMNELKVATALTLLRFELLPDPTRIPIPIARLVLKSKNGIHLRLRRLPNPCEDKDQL

[4] = target: T4, CYP4A11 (Homo sapiens, UniProt Q02928); experiment: Inhibition of recombinant human CYP4A11 expressed in baculovirus-infected insect cells at 50 uM incubated for 15 mins in presence of arachidonic acid and NADPH by jump-dilution assay relative to control; format: ADME; settings: probe arachidonic acid
T4 sequence (Q02928 whole entry): T3 sequence (Q02928 whole entry)

[5] = target: T1, CYP450 (20-HETE formation); experiment: Inhibition of CYP450 in human HCT-116 cells assessed as 20-HETE formation in presence of arachidonic acid incubated for 15 mins by multi-enzyme assay based LC-MS/MS analysis relative to control; format: ADME, cell-based; settings: probe arachidonic acid
[6] = Apparent permeability of the compound by PAMPA assay; format: ADME
[7] = Apparent permeability of the compound in human Caco-2 cells; format: ADME, cell-based
[8] = Drug recovery in human liver microsomes assessed as UDPGA-fortified conjugation recovery in presence of arachidonic acid incubated for 30 mins; format: ADME, Microsome; settings: read-out: Drug recovery

- IC50 [1]: 4.9 µM
- IC50 [2]: 0.87 µM
- IC50 [3]: 50 µM
- inhibition at 0.25 h, 50 µM [4]: < 25%
- IC50 at 15 min [5]: 1.9 µM
- Papp [6]: 4.6 ×10⁻⁶ cm/s
- Papp [7]: 4.1 ×10⁻⁶ cm/s
- remaining at 0.5 h [8]: > 95%
Compound: O=c1cc(-c2ccc(C(F)(F)F)cc2)oc2ccccc12
